Reference: ChEMBL document CHEMBL1126795, “Amesergide and structurally related nor-D-ergolines: 5HT2 receptor interactions in the rat” (J Med Chem, 1993)

Test: Concentration required to inhibit pressor response to serotonin after 15 min i.v. administration of compound mediated via activation of vascular 5-HT2 receptors in rat
Format: functional, organism-based

Row | SMILES | Concentration [mg/kg]
1 | CCCn1cc2c3c(cccc31)C[C@@H](N(C)CCC(=O)NC1CCCCC1)C2 | 1
2 | CN(CCC(=O)NC1CCCCC1)[C@@H]1Cc2cccc3[nH]cc(c23)C1 | 1
3 | CN(CCC(=O)NC1CCCCC1)[C@H]1Cc2cccc3[nH]cc(c23)C1 | 1
